{"source": "patent US20210275545A1", "about": "“METHOD OF TREATING CANCER PREFERABLY CHARACTERIZED BY EXPRESSION OF A FUSION PROTEIN COMPRISING A MEMBER OF THE E-TWENTY-SIX FAMILY BY ADMINISTERING AN AGENT THAT INHIBITS THE SYNTHESIS AND/OR ACTIVITY OF CORTISOL” (Yeda Research and Development Co. Ltd., priority 2018, published 2021)", "key": {"GR and EWS-FLI1 [1]": {"target": "T1, GR and EWS-FLI1 (Homo sapiens, UniProt P04150)", "T1 sequence (P04150 whole entry)": "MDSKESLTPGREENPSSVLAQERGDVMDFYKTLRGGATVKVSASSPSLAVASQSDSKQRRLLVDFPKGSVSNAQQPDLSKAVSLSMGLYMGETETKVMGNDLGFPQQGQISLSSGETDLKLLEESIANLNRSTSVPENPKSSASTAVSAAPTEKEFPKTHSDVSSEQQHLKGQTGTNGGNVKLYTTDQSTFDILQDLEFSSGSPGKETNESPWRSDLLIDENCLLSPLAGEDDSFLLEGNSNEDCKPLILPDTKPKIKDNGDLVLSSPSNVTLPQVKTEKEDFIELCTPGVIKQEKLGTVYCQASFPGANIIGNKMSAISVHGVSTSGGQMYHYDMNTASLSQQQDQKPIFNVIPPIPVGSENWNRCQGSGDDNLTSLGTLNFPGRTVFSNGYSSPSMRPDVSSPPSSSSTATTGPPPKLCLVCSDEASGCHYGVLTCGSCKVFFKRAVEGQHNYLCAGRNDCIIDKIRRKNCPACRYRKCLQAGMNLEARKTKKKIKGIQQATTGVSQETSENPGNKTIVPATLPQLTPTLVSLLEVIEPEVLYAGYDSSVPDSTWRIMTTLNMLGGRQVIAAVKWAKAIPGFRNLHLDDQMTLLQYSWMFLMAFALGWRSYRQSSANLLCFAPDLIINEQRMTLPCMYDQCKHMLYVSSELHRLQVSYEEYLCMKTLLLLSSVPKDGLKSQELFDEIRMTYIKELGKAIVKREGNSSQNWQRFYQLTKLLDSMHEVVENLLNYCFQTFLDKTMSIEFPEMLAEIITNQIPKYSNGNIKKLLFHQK", "conditions": "A673 cells", "procedure": "Images were processed using the Zeiss ZEN2011 software. […] Bars, 20 μm.\n(§1) Proximity ligation assay (PLA), extraction of cells, co-immunoprecipitation and cell migration/invasion assays: These assays were performed exactly as recently reported."}, "A673 cells [2]": {"tested_on": "A673 cells", "test": "Apoptosis assay (annexinV/7-AAD)", "type": "cell-based", "conditions": "RU486 10 or 20 μM, 48 hours", "procedure": "FIGS. 12A-F: Inhibition of GR activity decreases growth and survival of Ewing's sarcoma cells. […] (B) Increasing concentrations of […], a non-steroidal antagonist of GR [54], were incubated with A673 cells as in A and the MTT assay was performed in triplicates. *, p<0.05. […] Note that the abundance of the endogenous form of FLI1 is much weaker than that of EWS-FLI1. […] MTT assays were performed after 48 hours of treatment. The assay was repeated twice in quadruplets. **, p<0.01, ***, p<0.001. (E) A673 cells were seeded in 100-mm dishes. […] Shown are results of an apoptosis assay performed using an annexinV/7-AAD kit (BioLegend, Inc.). Quantification of the fractions of early and late apoptotic cells is shown in bar plots. The experiment was repeated twice. (F) The indicated ES cells were sparsely seeded in 6-well plates. […] Ten days later, cells were fixed and stained with crystal violet to visualize emerging colonies. Photos are shown along with bar plots showing the quantification of colonies in 5 non-overlapping microscope fields. The experiment was repeated twice. *, p≤0.05; **, p≤0.001. Apoptosis assays: Assays were performed using the FITC Annexin V Apoptosis Detection Kit with 7-AAD (from BioLegend) and analyzed using a BD FACSAria Fusion instrument controlled by BD FACS Diva software v8.0.1 (BD Biosciences)."}, "TC-71 cells": {"tested_on": "TC-71 cells", "test": "Bone-to-lung metastasis of luciferase-labeled TC-71 cells injected into the tibia", "type": "in vivo, SCID mice", "conditions": "TC-71 in tibia; 1 mg/kg intraperitoneally", "text": "FIGS. 6A-E. A GR antagonist and a cortisol-lowering drug impede growth of human xenograft models of Ewing's sarcoma. (A) RD-ES cells (2×10^6) were implanted subcutaneously in the right flank of SCID mice. […] The means of tumor volumes (+SEM) are shown. […] (B) Shown are representative images of immunofluorescent staining for KI67 in paraffin-embedded sections of tumors from A, using an antibody against KI67. Scale bars, 100 μm. Also shown is the scatter plot depicting quantification of KI67 staining in randomly selected 4 fields of a representative tumor from each group. […] (C and D) A673 cells (2×10^6) were implanted in female SCID mice. […] Each group was daily treated with either vehicle, or Metyrapone (25 mg/kg) and tumorigenic growth was monitored. Actual tumor volumes (±SEM) are presented. Also shown are tumors harvested from each group of animals; **p<0.001. (E) TC-71 cells (10^6) engineered to stably express luciferase were injected into the tibia of female SCID mice (5 weeks old; 7 mice per group). […] The control group was similarly treated with the solvent (0.1% tween 80). When the primary tumor reached 10% of body weight, the lungs were excised and examined for metastasis using luciferase bioluminescence imaging. […] Luminescence was quantified and presented in a bar graph. […] Tumor growth was monitored once every 3 days using a caliper. […]"}, "GR and ETV4": {"target": "GR and ETV4 (Homo sapiens, UniProt P04150)", "sequence (P04150 whole entry, the tested form may be a part)": "as the sequence (P04150 whole entry) above", "conditions": "combination of DEX (1 μM) and RU486 (1 μM)", "procedure": "(§2) (A) The scheme presents the full length Gaussia luciferase protein, along with either the amino-terminal segment (Gluc1), which was fused to an ETS family transcription factor, or the carboxyl terminal segment (Gluc2), which was fused to GR. Amino acid numbers are indicated. cDNAs encoding most members of the ETS family (16 members altogether) were cloned downstream to Gluc1. […] (B) HEK-293T cells (6×10^3) were seeded in 96-well plates. On the next day, cells were transfected with combinations of the Gluc1 plasmid, encoding a fused ETS family member, and the Gluc2 plasmid encoding a fused full-length GR. […] Cells were then lysed and luminescence was determined in biological triplicates. […] (D and E) HEK-293T cells were seeded in 100-mm dishes. Once they reached sub-maximal density (70%), cells were starved overnight for serum factors. […] Cell extracts were then processed for co-immunoprecipitation assays, in which the endogenous FLI1 or ERG protein was immunoprecipitated using a specific antibody, and immunoblotting was performed using an antibody against GR. EB, empty beads; C, solvent control. Images shown are representative of three biological replicates.\n(§3) Protein-fragment complementation assays (PCA): PCA was performed as previously described."}, "GR and PU.1": {"target": "GR and PU.1 (Homo sapiens, UniProt P04150)", "sequence (P04150 whole entry)": "as above", "conditions": "combination of DEX (1 μM) and RU486 (1 μM)", "procedure": "as §2, §3"}, "A673 cells [3]": {"tested_on": "A673 cells", "test": "MTT cell viability assay, A673 cells", "type": "cell-based", "conditions": "FLI1 silenced A673 cells; RU486 10 μM, 48 hours"}, "GR and EWS-FLI1 [4]": {"target": "T1, GR and EWS-FLI1", "conditions": "DEX 1 μM, RU486 1 μM, 60 minutes", "experimental": "(A) CHLA9 cells were seeded in 100-mm dishes. Once they reached sub-maximal density, cells were starved overnight for serum factors. […] Cells were then extracted and the lysates were processed for co-immunoprecipitation assays using an antibody against GR followed by immunobloting that used an antibody against EWS. The image shown is representative of 3 biological replicates. Signals were quantified and normalized (see numbers below each lane). EB, empty beads. […] (C-D) CHLA9 cells were seeded on the upper faces of either Transwell migration chambers or Matrigel-coated invasion chambers, and further incubated for 20 hours in full medium. Control siRNAs or siRNAs specific to either GR or EWS-FLI1 were added to cells 24 hours prior to seeding, and both cell migration and invasion were measured 20 hours later. […] Cells that reached the lower faces of the chambers were fixed and stained. Shown are representative images of stained cells. The bar plots show quantification, using ImageJ, of the area covered by cells. *, p≤0.05, **, p≤0.005. Bars, 500 μm. […] The bar plots show quantification, using ImageJ, of the area covered by cells. *, p≤0.05, **, p≤0.005. […]\n(A) RD-ES cells were seeded in 100-mm dishes. […] Cell migration/invasion was determined 20 hours later."}, "[5]": {"tested_on": "glucocorticoid response element (GRE)", "conditions": "DEX and RU486 each at 100 nM, 24 hours", "experimental": "HEK-293T cells (1.2×10^4) were seeded in 48-well plates. […] In addition, cells were co-transfected with increasing amounts of a GR expression vector (A), a FLI1-encoding vector (B) or with a combination of both a FLI1 vector and a vector encoding GR, either wild type (C) or a mutant receptor (GRdim−, panel D). Luciferase activity was determined, in biological triplicates, 48 hours later and presented in bar plots. Cells that were pre-transfected with the reporter plasmid were used for normalization. *, p≤0.05; ***, p≤0.001. […] This was followed by cell lysis and determination of luciferase activity in biological triplicates.\nLuciferase-reporter assays: Cells were co-transfected with a luciferase plasmid containing the consensus glucocorticoid response element (GRE) along with pGL3-Control (Promega, Madison, Wis.). Luciferase activity was determined using the dual-luciferase reporter assay system (Promega). Firefly luciferase luminescence values were normalized to Renilla luminescence."}, "GR and FLI1 [6]": {"target": "T2, GR and FLI1 (Homo sapiens, UniProt P04150)", "T2 sequence (P04150 whole entry)": "as above", "conditions": "HEK-293T cells, treated for 60 minutes", "procedure": "as §2, §1"}, "GR and FLI1 [7]": {"target": "T2, GR and FLI1", "conditions": "combination of DEX (1 μM) and RU486 (1 μM)", "procedure": "as §2\n(A) HEK-293T cells (6×10^3) were seeded in 96-well plates. On the next day, the cells were transfected with combinations of the Gluc1 plasmid, encoding fused FLI1 or ERG, and the Gluc2 plasmid encoding GR. […] Cells were then lysed and luminescence was determined in each sample. Luminescence of vehicle-treated cells was used for normalization. […] (B) HEK-293T cells were seeded on coverslips in 6-well plates. […] Images were processed using the Zeiss ZEN2011 software. […] Bars, 20 μm.\nas §3"}}}
{"smiles": "CC#C[C@]1(O)CC[C@H]2[C@@H]3CCC4=CC(=O)CCC4=C3[C@@H](c3ccc(N(C)C)cc3)C[C@@]21C", "note": "[RU486, Mifepristone]", "values": [{"measurement": "GR/EWS-FLI1 protein-protein interactions (PLA)", "setting": "GR and EWS-FLI1 [1]", "result": "blocked"}, {"measurement": "early apoptosis (fraction of cells)", "setting": "A673 cells [2]; DEX 1 μM", "result": "increased"}, {"measurement": "late apoptosis (fraction of cells)", "setting": "A673 cells [2]", "result": "increased"}, {"measurement": "bone-to-lung metastasis (lung luminescence)", "setting": "TC-71 cells", "result": "lessened lung nodules"}, {"measurement": "effect on DEX-induced physical interaction between GR and ETV4 (PCA)", "setting": "GR and ETV4", "result": "only a trend was noted"}, {"measurement": "effect on DEX-induced physical interaction between GR and PU.1 (PCA)", "setting": "GR and PU.1", "result": "significantly inhibited"}, {"measurement": "fraction of metabolically active cells (MTT) after EWS-FLI1 knockdown", "setting": "A673 cells [3]", "result": "further reduced"}, {"measurement": "GR/EWS-FLI1 co-immunoprecipitation, CHLA9 cells", "setting": "GR and EWS-FLI1 [4]; CHLA9 cells", "result": "completely"}, {"measurement": "GR/EWS-FLI1 co-immunoprecipitation, RD-ES cells", "setting": "GR and EWS-FLI1 [4]; RD-ES cells", "result": "partially"}, {"measurement": "effect of co-treatment on DEX-induced GRE activity", "setting": "[5]", "result": "inhibitory"}, {"measurement": "co-immunoprecipitation of GR and FLI1", "setting": "GR and FLI1 [6]", "result": "strongly reduced"}, {"measurement": "effect on DEX-induced physical interaction between GR and FLI1 (PCA)", "setting": "GR and FLI1 [7]", "result": "significantly inhibited"}]}
